In publication PMC11519904, “Comprehensive Cell Biological Investigation of Cytochalasin B Derivatives with Distinct Activities on the Actin Network” (Journal of Natural Products, 2024):
Converted amounts (≈) assume the structure as drawn. “Also recorded” adds a separate entry of the source. Read-outs that look alike come from different tables or passages of the source.

Columns and labels:
L929 (mouse fibroblast) = assay: Cytotoxicity assay (MTT), L929; type: cell-based; conditions: 5 days of incubation, MTT, NC: no cytotoxic effect, or only weak inhibition of proliferation, read-out: IC50 L929
Protocol: (§1) The cytotoxicity assay was implemented in 96-well flat-bottom microtiter plates following a reported procedure.[21],[22],[33] The mammalian cell lines L929 (mouse fibroblast) and KB3.1 (human cervix carcinoma) were cultivated at 37 °C and 10% CO2 in Dulbecco’s modified minimum essential medium (DMEM, Life Technologies, Carlsbad, CA, USA) supplemented with 10% fetal bovine serum (FBS, Life Technologies). The microtiter plate was filled with 120 μL of suspended cells (50,000/mL), and 60 μL of a serial dilution of the test compound was added. After 5 days of incubation, growth inhibition (IC50) was determined by a colorimetric tetrazolium dye MTT assay.[34] The compounds were dissolved in MeOH (1 mg/mL), MeOH was used as negative control, and epothilone[35] (1 mg/mL) was used as positive control.

[1] = test system: filamentous actin (F-actin) in U-2OS wild type (wt) cells; assay: Actin disruption assay in U-2OS cells (phalloidin staining); type: cell-based, human; conditions: for effect on F-actin network, high dose 1 h: 5 x IC50 (L929), compared to control; for effect on actin and nuclei number, high dose 24 h: 5 x IC50, 24 h, differences between 1 and 24 h treatment
Protocol: For this, the human osteosarcoma cell line U-2OS was treated using concentrations estimated based on previously determined IC50 values in murine L929 fibroblasts (Table 1), referred to as low dose (1 × IC50), and a 5-fold concentration, referred to as high dose (5 × IC50). Reorganization of the F-actin network was also investigated upon high dose treatment, followed by washout and a 1 h recovery phase in fresh medium. The impact on F-actin network organization was visualized using fluorescently labeled phalloidin (Figure 2). […] In addition, the effects on F-actin structures observed upon high dose treatment of all compounds were fully reversible after a 1 h recovery time (Figure 2m–q).
The respective previously determined IC50 values in L929 were used to calculate the treatment concentration (1 × IC50: low dose; 5 × IC50: high dose).[37] DMSO was used as the vehicle control, corresponding to the highest compound volume used in the assay. Coverslips were coated with 25 μg/mL fibronectin (Roche, Mannheim, Germany) diluted 1:40 in phosphate buffered saline (PBS, pH 7.4, Life Technologies), and cells were seeded at a density of 20,000 cells and allowed to spread overnight. CO2-equilibrated culture medium was spiked with the desired compound and DMSO, respectively, in the above-mentioned concentration, and cells were treated with prepared medium for 1 h under cell culture conditions. For long-term experiments, the treatment phase was extended to 24 h. Cells were washed once and fixed afterward using 4% prewarmed paraformaldehyde (PFA) supplied in PBS for 20 min at 37 °C, followed by three additional washing steps with prewarmed PBS buffer. In addition, the reversibility of high dose effects on F-actin network organization was investigated by a washout procedure including three times prewarmed PBS wash steps prior to the addition of fresh medium and a recovery time of 1 h before fixation. In the case of 24 h treatments, the recovery phase was extended to 47 h. Cells were permeabilized with 0.1% Triton X-100 (Bio-Rad Laboratories, Hercules, CA, USA) in PBS buffer for 1 min at room temperature, washed three times with PBS, and stained for F-actin using ATTO-594-coupled phalloidin (ATTO-Tec, Siegen, Germany) diluted in PBS buffer (1:100) for 1 h at room temperature. Coverslips were washed thrice in PBS and mounted in ProLong Diamond antifade mountant (Invitrogen) containing DAPI to probe for nuclear DNA. Cells were recorded using an inverted microscope (Nikon Eclipse Ti2, Tokyo, Japan) equipped with a 60 times Nikon oil immersion objective (Plan Apofluar, 1.4 NA), a pE-4000 (CoolLED, Andover, UK) as light source, and a pco.edge back-illuminated sCMOS camera (Excelitas Technologies, Mississauga, ON, Canada). The microscopy system was operated by and images were recorded with NIS (Nikon) and processed with ImageJ (NIH, Bethesda, MD, USA).

U-2OS cells = assay: Cell proliferation assay (Incucyte), 24 h treatment and 47 h recovery; type: cell-based, human; conditions: 24 h 5 x IC50 treatment
Protocol: U-2OS cells were seeded into fibronectin-coated (25 μg/mL) 96-well plate wells at densities of 3700 cells/well and allowed to spread overnight at 37 °C and 7.5% CO2. Cells were treated with 5 × IC50 concentrations of desired compounds for 24 h, washed twice with prewarmed PBS, and cultured in complete medium for further 47 h. Cells were recorded immediately after compound addition over the course of the experiment using an Incucyte S3 live-cell analysis system (Sartorius, Göttingen, Germany) with a 20 × objective at 37 °C and 5% CO2. Three phase contrast images per well and three wells per treatment were captured every hour for 71 h. The quantification of phase object counts was accomplished with the Adherent Cell-by-Cell analysis module of the IncuCyte S3 Live Cell Analysis Software and normalized to the average, respective initial phase contrast count. Graphical presentation of the data and ordinary one-way ANOVA followed by Dunnett’s multiple comparisons test was performed using GraphPad Prism version 8.4.3 for Windows, GraphPad Software (Boston, MA, USA, www.graphpad.com).

[2] = test system: KB3.1 (human cervix carcinoma); assay: Cytotoxicity assay (MTT), KB3.1; type: cell-based; conditions: 5 days of incubation, MTT, read-out: IC50 KB3.1
Protocol: as §1

[3] = test system: Schizosaccharomyces pombe (DSM 70572); assay: Serial dilution assay (MIC), S. pombe; type: cell-based; conditions: DSM70572, growth inhibition at 24 h, read-out: MIC against S. pombe
Protocol: Serial dilutions of compounds were prepared as triplicates in sterile U-bottom-shaped 96-well plates (Corning, USA). Mueller-Hinton broth (MHB) medium was used for bacteria, and YMG medium was used for filamentous fungi and yeasts. The selected organisms represent a broad spectrum of pathogens of clinical interest, as well as sensitive indicator strains (Gram-positive bacteria: Bacillus subtilis (DSM 10), Staphylococcus aureus (DSM 346), Mycobacterium smegmatis (ATCC 7000084); Gram-negative bacteria: Acinetobacter baumannii (DSM 30008), Chromobacterium violaceum (DSM 30191), Escherichia coli (DSM 1116), Pseudomonas aeruginosa (PA 14); fungi and yeast: Schizosaccharomyces pombe (DSM 70572), Pichia anomala (DSM 6766), Mucor hiemalis (DSM 2656), Candida albicans (DSM 1665), Rhodotorula glutinis (DSM 10134)).
The compounds were dissolved in MeOH (1 mg/mL), added to the bacterial suspension, and diluted to the final concentrations. The plate was incubated at 37 °C under static conditions. Growth inhibition was assessed at 24 h. MeOH was used as negative control. […]

Row | Compound | IC50 (L929 (mouse fibroblast)) | IC50 (L929 (mouse fibroblast); Mus musculus, L929, 120 h) | effect on F-actin network, high dose 1 h ([1]; 1 h) | effect on actin and nuclei number, high dose 24 h [1] | cell proliferation / recovery after washout (U-2OS cells) | IC50 [2] | IC50 ([2]; Homo sapiens, KB 3-1, 120 h) | MIC [3] | effect on F-actin network, low dose ([1]; 1 x IC50 (L929), 1 h)
1 | C=C1[C@@H](C)[C@H]2[C@H](Cc3ccccc3)NC(=O)[C@]23OC(=O)/C=C/[C@H](O)CCC[C@@H](C)C/C=C/[C@H]3[C@@H]1OC(C)=O [Compound 3, 7-O-acetyl cytochalasin B] | 16 µM | > 10 µM | no such structures; also recorded: no effect | + actin disruption; also recorded: altered actin structures, however without inducing multinucleation | significantly diminished; also recorded: completely abolished | – | – | – | –
2 | C=C1[C@@H](C)[C@H]2[C@H](Cc3ccccc3)N(C(C)=O)C(=O)[C@]23OC(=O)/C=C/[C@H](O)CCC[C@@H](C)C/C=C/[C@H]3[C@@H]1O [Compound 5, N-acetyl cytochalasin B] | 9.4 µM | 4.8 to 9.4 µM | only slight; also recorded: moderate effects | + multinucleation actin disruption | – | 7.9 µM | 4.8 to 9.4 µM | – | –
3 | C=C1[C@@H](C)[C@H]2[C@H](Cc3ccccc3)NC(=O)[C@]23OC(=O)/C=C/[C@H](OC(C)=O)CCC[C@@H](C)C/C=C/[C@H]3[C@@H]1O [Compound 6, 20-O-acetyl cytochalasin B] | 4.8 µM | 4.8 to 9.4 µM | complete collapse of the F-actin network; also recorded: actin disruption | + multinucleation | – | – | – | 33.3 µg/mL (≈ 63.8 µM) | partially led to compromised lamellipodia and a reduction of intermittent, cytoplasmic F-actin
